The values below are quoted from earlier work in patent publication US20210299202A1, “FORMULATION OF C[…]” (CARDINAL ADVISORY LIMITED, priority 2018, published 2021).

For data set [1] the following is noted: smoked, pulmonary absorption.
For data set [2] the following is noted: oral ingestion.

Regarding `CCCCCc1cc(O)c2c(c1)OC(C)(C)[C@@H]1CCC(C)=C[C@@H]21` [THC, delta-9-tetrahydrocannabinol], the “time to peak plasma THC concentration” value in data set [1] was 6 to 10 min. Besides, in data set [2], the “time to peak plasma concentration” value was 2 to 6 h.
